Measured values: patent publication US20010033847A1, “DERMATOLOGIC PREPARATION” (priority 1996, published 2001)

Test system: affected regions of atopic patients
Assay: itch and area of inflammation after 1 week of application in atopic patients
Format: in vivo, human
Settings: number of 3 atopic patients; daily application for 1 week
Protocol: The dermatologic preparations of Examples 1 to 3 and the dermatologic preparations for comparison of Reference Examples 1 to 3 were evaluated for itch and the area of inflammation 1 week after application.
To the affected regions of 3 atopic patients (1 adult, 1 adult, and 1 child), was applied an adequate amount of each oil produced in Examples 1 to 3 and Reference Examples 1 to 3 after bathing every day. After application for 1 week, itch and the inflammatory area were evaluated. During the treatment period, the drugs used previously were continued. In the child who could not describe itch, itch was evaluated based on the behavior of scratching at the affected region.

## 1,3-dioctanoyl-2-eicosapentaenoyl glycerol [Example 2]
  inflammatory area: no change: 0 patients
  inflammatory area: reduced: 3 patients
  inflammatory area: widened: 0 patients
  itch: improved: 3 patients
  itch: no change: 0 patients
  itch: worsened: 0 patients
